In ChEMBL document CHEMBL3124891, “Tetrahydroquinoline derivatives as potent and selective factor XIa inhibitors” (J Med Chem, 2014):

Assays:
[1] = system: Oryctolagus cuniculus; experiment: Toxicity in rabbit arteriovenous-shunt thrombosis model assessed as increase in bleeding time compound administered as single bolus dose followed by five continuous infusion dose; format: organism-based; conditions: in vivo, iv
[2] = system: Oryctolagus cuniculus; experiment: Antithrombotic activity in rabbit arteriovenous-shunt thrombosis model assessed as inhibition of clot formation compound administered as single bolus dose followed by five continuous infusion dose; format: functional
[3] = system: Plasma; experiment: Anticoagulant activity in New Zealand White rabbit plasma assessed as concentration required to double activated partial thromboplastin time; format: functional, Oryctolagus cuniculus
[4] = Binding affinity to New Zealand White rabbit plasma kallikrein assessed as release of p-nitroaniline after 10 to 120 mins by spectrophotometric analysis; format: cell-free, Oryctolagus cuniculus
[5] = Binding affinity to New Zealand White rabbit factor 7a assessed as release of p-nitroaniline after 10 to 120 mins by spectrophotometric analysis; design: species or system Oryctolagus cuniculus
[6] = biological target: T1, Coagulation factor X (Oryctolagus cuniculus, UniProt O19045); experiment: Binding affinity to New Zealand White rabbit factor 10a assessed as release of p-nitroaniline after 10 to 120 mins by spectrophotometric analysis
T1 sequence (O19045 whole entry): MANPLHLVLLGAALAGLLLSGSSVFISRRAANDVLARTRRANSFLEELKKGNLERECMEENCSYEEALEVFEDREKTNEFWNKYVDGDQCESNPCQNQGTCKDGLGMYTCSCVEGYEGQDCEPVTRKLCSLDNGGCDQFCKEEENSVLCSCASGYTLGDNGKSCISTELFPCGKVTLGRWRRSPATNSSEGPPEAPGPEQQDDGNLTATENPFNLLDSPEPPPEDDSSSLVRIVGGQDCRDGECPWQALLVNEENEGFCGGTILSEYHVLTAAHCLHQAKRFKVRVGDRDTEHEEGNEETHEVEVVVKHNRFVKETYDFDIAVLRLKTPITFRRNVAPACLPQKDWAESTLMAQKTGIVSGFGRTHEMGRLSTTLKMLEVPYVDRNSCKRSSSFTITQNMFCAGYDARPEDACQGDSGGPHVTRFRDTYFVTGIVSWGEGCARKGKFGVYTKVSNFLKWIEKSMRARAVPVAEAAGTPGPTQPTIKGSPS

[7] = Binding affinity to New Zealand White rabbit thrombin assessed as release of p-nitroaniline after 10 to 120 mins by spectrophotometric analysis; design: species or system Oryctolagus cuniculus
[8] = Binding affinity to New Zealand White rabbit factor 11a assessed as release of p-nitroaniline after 10 to 120 mins by spectrophotometric analysis; design: species or system Oryctolagus cuniculus
[9] = system: Plasma; experiment: Anticoagulant activity in human plasma assessed as concentration required to inhibit double prothrombin time; format: functional
[10] = system: Plasma; experiment: Anticoagulant activity in human plasma assessed as concentration required to double activated partial thromboplastin time; format: functional
[11] = biological target: Coagulation factor IX (Homo sapiens, UniProt P00740); experiment: Binding affinity to human factor 9a assessed as release of p-nitroaniline after 10 to 120 mins by spectrophotometric analysis
Sequence of Coagulation factor IX (P00740 47-191 limits assumed): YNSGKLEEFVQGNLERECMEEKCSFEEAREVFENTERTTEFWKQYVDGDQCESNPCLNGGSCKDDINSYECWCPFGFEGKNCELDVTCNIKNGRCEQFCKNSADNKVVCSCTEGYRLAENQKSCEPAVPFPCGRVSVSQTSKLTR
Sequence of Coagulation factor IX (P00740 227-461 limits assumed): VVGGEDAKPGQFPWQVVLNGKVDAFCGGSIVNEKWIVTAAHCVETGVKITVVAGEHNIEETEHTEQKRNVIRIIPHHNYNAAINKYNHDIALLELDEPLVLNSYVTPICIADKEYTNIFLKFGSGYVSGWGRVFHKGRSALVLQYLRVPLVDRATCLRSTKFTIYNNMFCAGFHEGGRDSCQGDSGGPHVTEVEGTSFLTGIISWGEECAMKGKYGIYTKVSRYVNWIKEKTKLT

[12] = Binding affinity to human chymotrypsin assessed as release of p-nitroaniline after 10 to 120 mins by spectrophotometric analysis
[13] = biological target: Prothrombin (Homo sapiens, UniProt P00734); experiment: Binding affinity to human thrombin assessed as release of p-nitroaniline after 10 to 120 mins by spectrophotometric analysis
[14] = biological target: Urokinase-type plasminogen activator (Homo sapiens, UniProt P00749); experiment: Binding affinity to human urokinase assessed as release of p-nitroaniline after 10 to 120 mins by spectrophotometric analysis
[15] = biological target: Tissue-type plasminogen activator (Homo sapiens, UniProt P00750); experiment: Binding affinity to human tPA assessed as release of p-nitroaniline after 10 to 120 mins by spectrophotometric analysis
Sequence of Tissue-type plasminogen activator (P00750 whole entry): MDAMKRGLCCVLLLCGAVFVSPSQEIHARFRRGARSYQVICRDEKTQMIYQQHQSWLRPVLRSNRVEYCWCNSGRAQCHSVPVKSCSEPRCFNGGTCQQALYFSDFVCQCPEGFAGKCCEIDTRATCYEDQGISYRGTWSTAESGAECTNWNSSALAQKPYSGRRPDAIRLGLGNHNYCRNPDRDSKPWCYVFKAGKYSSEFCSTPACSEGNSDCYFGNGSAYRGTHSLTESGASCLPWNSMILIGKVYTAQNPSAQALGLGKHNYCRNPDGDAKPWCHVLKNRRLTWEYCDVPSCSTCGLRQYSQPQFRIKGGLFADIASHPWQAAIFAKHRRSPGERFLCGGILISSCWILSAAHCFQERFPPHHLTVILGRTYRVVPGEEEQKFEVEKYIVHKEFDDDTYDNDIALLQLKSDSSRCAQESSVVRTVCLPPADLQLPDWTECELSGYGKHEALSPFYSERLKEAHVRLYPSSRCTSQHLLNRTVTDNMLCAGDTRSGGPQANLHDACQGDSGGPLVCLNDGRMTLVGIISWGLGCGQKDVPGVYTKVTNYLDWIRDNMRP

[16] = biological target: Plasminogen (Homo sapiens, UniProt P00747); experiment: Binding affinity to human plasmin assessed as release of p-nitroaniline after 10 to 120 mins by spectrophotometric analysis
Sequence of Plasminogen (P00747 97-580 limits assumed): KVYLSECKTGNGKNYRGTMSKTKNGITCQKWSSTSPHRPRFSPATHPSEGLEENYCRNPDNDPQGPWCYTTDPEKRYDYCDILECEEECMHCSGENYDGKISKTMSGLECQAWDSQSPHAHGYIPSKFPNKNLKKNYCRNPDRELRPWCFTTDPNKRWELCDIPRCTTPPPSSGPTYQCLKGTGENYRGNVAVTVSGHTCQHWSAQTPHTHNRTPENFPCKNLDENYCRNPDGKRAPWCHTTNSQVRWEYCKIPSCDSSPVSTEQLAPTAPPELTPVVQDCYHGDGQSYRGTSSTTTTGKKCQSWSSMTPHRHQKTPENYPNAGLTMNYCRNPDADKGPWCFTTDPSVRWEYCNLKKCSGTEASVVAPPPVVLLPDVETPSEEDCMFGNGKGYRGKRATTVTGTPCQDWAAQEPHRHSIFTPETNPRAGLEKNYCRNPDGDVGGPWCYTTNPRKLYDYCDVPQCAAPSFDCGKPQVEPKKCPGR
Sequence of Plasminogen (P00747 581-810 limits assumed): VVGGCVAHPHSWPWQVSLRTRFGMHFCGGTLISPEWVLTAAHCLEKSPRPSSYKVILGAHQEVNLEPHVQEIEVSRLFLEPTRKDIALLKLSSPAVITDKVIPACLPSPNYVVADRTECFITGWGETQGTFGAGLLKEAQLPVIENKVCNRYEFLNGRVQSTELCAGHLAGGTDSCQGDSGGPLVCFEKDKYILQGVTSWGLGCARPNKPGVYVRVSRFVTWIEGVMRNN

[17] = biological target: Trypsin (Homo sapiens, UniProt P07477+P07478+P35030); experiment: Binding affinity to human trypsin assessed as release of p-nitroaniline after 10 to 120 mins by spectrophotometric analysis; format: protein assay
[18] = biological target: Vitamin K-dependent protein C (Homo sapiens, UniProt P04070); experiment: Binding affinity to human activated protein C assessed as release of p-nitroaniline after 10 to 120 mins by spectrophotometric analysis
Sequence of Vitamin K-dependent protein C (P04070 43-197 limits assumed): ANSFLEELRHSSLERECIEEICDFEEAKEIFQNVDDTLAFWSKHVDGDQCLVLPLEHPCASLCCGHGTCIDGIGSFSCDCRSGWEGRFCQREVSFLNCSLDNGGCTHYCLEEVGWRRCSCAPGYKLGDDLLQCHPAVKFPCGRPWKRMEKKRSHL
Sequence of Vitamin K-dependent protein C (P04070 212-461 limits assumed): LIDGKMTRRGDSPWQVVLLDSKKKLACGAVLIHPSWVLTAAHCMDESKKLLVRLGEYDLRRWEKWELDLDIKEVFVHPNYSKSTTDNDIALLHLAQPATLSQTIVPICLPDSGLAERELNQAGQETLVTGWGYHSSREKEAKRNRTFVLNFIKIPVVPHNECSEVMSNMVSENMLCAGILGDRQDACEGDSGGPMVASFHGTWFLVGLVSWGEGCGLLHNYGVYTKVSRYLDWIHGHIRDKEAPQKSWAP

[19] = biological target: Plasma kallikrein (Homo sapiens, UniProt P03952); experiment: Binding affinity to human plasma kallikrein assessed as release of p-nitroaniline after 10 to 120 mins by spectrophotometric analysis
Sequence of Plasma kallikrein (P03952 20-390 limits assumed): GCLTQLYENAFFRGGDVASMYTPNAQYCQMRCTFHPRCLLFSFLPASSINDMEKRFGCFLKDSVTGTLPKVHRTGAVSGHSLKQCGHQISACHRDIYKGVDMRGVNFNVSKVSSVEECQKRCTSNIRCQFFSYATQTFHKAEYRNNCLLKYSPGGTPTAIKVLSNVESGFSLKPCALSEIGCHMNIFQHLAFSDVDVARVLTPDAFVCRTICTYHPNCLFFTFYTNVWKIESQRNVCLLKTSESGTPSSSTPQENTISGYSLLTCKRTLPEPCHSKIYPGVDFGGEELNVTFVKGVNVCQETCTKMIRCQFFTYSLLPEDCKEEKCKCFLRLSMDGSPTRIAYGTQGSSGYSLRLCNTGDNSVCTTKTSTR
Sequence of Plasma kallikrein (P03952 391-638 limits assumed): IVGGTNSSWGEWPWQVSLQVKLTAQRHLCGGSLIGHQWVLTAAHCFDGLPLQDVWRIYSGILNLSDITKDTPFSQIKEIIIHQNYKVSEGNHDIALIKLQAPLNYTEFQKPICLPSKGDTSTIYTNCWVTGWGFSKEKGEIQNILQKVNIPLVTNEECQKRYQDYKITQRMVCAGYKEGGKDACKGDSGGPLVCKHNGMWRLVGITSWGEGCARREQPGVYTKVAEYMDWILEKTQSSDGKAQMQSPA

[20] = biological target: Coagulation factor X (Homo sapiens, UniProt P00742); experiment: Binding affinity to human factor 10a assessed as release of p-nitroaniline after 10 to 120 mins by spectrophotometric analysis
Sequence of Coagulation factor X (Homo sapiens, UniProt P00742) (P00742 41-179 limits assumed): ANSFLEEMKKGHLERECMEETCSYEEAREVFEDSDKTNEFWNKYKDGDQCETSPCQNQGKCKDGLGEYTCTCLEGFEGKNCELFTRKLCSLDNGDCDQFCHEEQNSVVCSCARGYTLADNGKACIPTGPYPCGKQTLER
Sequence of Coagulation factor X (Homo sapiens, UniProt P00742) (P00742 235-488 limits assumed): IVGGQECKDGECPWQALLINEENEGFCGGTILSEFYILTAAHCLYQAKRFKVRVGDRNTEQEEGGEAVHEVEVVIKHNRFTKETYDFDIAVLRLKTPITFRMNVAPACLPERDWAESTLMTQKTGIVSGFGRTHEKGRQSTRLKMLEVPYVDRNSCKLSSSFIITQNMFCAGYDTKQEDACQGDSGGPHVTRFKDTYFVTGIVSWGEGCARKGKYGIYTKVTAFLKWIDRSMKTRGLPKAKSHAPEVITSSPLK

[21] = biological target: T2, Coagulation factor VII (Homo sapiens, UniProt P08709); experiment: Binding affinity to human factor 7a assessed as release of p-nitroaniline after 10 to 120 mins by spectrophotometric analysis
T2 sequence (P08709 whole entry): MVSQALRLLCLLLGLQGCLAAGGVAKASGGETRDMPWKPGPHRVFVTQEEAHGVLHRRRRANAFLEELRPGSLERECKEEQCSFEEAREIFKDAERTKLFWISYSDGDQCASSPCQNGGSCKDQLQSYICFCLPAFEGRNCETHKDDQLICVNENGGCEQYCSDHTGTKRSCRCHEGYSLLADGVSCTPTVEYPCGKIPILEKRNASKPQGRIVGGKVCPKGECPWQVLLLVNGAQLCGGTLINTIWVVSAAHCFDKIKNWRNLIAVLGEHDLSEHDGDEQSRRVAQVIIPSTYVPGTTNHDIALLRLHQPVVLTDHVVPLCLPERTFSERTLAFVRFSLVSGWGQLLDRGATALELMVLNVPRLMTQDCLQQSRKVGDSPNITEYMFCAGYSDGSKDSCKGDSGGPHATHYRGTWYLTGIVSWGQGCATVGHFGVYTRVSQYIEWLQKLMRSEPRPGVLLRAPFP

[22] = biological target: Coagulation factor XI (Homo sapiens, UniProt P03951); experiment: Binding affinity to human factor 11a assessed as release of p-nitroaniline after 10 to 120 mins by spectrophotometric analysis
Sequence of Coagulation factor XI (P03951 19-387 limits assumed): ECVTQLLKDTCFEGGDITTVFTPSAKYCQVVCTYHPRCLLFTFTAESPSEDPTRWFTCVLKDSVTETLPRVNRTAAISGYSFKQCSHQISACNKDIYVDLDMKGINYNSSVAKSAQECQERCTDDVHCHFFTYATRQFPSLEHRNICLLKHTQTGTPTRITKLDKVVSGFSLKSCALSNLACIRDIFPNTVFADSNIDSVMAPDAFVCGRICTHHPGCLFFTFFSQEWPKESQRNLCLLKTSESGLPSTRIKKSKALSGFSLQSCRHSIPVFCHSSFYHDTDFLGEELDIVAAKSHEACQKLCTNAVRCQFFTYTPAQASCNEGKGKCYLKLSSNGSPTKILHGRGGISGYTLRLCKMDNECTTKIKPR
Sequence of Coagulation factor XI (P03951 388-625 limits assumed): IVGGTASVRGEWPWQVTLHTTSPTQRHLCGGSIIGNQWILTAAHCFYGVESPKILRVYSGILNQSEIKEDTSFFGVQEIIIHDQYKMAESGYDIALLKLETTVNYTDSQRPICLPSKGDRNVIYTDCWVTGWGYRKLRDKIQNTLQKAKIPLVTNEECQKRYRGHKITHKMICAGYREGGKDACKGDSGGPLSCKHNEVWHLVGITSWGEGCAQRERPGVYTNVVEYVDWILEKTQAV

Ki [4]: 4.6 nM
Ki [5]: 200 nM
Ki [6]: 3200 nM
Ki [7]: 7900 nM
Ki [8]: 0.42 nM
Ki [11]: > 20000 nM
Ki [12]: 14000 nM
Ki [13]: 12600 nM
Ki [14]: 2100 nM
Ki [15]: 1700 nM
Ki [16]: 910 nM
Ki [17]: 740 nM
Ki [18]: 73 nM
Ki [19]: 4.6 nM
Ki [20]: 340 nM
Ki [21]: 629 nM
Ki [22]: 0.2 nM
Compound: CC(C)CC(=O)Nc1cc(-c2ccc(C(N)=O)cc2C(=O)O)cc(C2CC(C)(c3ccccc3)c3cc(C(=N)N)ccc3N2)c1 (single isomer, unassigned; enantiomer 2)
Activity [1]: Non-toxic
ID50 [2]: 0.95 mg/kg/h
EC [3]: 2400 nM
IC [9]: >20 µM
EC [10]: 2.2 µM
